Measurements: article PMC5564600 (Oncotarget, 2017)

How the values were obtained:
Experiment in all cases: biochemical
Type in all cases: binding
panel of 442 kinases [1] = target: T1, panel of 442 kinases (Homo sapiens, UniProt P29323); details: EPHB2; for remaining activity at 1 µM: read-out: % of control at 1 µM
T1 construct: purchased Ambit Biosciences (scanMAXX KINOMEscan)
T1 sequence (P29323 19-1055): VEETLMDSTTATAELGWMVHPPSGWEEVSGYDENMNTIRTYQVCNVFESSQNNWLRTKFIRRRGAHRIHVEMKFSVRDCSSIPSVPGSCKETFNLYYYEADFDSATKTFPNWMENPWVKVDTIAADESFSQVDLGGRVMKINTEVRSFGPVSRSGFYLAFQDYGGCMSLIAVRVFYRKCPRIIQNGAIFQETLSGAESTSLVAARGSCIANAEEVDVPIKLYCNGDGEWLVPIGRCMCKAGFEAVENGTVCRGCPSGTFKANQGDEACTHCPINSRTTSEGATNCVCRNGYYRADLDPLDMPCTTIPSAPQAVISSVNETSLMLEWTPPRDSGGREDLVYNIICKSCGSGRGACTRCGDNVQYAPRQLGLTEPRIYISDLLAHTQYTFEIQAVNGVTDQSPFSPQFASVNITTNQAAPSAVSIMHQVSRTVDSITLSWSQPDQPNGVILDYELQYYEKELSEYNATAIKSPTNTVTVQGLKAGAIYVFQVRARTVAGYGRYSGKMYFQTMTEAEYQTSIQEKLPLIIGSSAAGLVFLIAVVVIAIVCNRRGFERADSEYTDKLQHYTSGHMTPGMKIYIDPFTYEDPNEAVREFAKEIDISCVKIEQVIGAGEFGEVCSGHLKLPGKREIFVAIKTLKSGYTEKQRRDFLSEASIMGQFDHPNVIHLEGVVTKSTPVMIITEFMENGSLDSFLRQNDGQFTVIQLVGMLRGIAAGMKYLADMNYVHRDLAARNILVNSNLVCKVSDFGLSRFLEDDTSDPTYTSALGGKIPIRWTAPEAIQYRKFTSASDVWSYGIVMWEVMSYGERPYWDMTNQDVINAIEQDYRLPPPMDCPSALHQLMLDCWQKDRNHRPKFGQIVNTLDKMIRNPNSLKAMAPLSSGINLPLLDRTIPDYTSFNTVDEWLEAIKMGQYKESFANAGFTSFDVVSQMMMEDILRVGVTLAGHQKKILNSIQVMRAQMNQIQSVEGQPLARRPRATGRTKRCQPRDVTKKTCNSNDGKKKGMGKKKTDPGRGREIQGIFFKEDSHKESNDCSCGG

panel of 442 kinases [2] = target: T2, panel of 442 kinases (Homo sapiens, UniProt P36888); details: FLT3; for remaining activity at 1 µM: read-out: % of control at 1 µM
T2 construct: purchased Ambit Biosciences (scanMAXX KINOMEscan)
T2 sequence (P36888 27-993): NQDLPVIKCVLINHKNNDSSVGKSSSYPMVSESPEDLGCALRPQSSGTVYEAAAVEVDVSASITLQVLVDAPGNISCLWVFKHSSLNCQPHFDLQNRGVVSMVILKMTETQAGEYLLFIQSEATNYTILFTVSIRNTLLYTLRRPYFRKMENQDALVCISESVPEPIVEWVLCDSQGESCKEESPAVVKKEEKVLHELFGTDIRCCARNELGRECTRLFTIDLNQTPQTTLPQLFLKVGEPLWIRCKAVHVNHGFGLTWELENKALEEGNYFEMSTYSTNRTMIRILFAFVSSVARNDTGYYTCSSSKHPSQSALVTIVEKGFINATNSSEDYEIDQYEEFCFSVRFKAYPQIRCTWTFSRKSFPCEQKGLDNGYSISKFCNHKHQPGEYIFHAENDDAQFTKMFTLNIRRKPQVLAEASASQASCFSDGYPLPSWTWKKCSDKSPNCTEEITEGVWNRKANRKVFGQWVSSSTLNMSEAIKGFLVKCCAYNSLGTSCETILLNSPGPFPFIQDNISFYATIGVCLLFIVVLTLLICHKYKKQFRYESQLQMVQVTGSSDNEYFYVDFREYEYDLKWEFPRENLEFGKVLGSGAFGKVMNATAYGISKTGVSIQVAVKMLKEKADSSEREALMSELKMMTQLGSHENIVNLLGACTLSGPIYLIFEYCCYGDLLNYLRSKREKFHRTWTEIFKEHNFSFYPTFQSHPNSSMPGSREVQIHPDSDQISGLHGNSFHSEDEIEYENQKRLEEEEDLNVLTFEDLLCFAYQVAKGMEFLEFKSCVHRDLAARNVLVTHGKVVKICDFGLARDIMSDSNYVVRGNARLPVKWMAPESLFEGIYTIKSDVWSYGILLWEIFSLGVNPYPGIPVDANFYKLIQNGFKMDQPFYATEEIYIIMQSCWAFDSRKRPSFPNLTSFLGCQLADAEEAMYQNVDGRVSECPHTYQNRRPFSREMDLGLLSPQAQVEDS

panel of 442 kinases [3] = target: T3, panel of 442 kinases (Homo sapiens, UniProt Q9BWU1); details: CDK11; for remaining activity at 1 µM: read-out: % of control at 1 µM
T3 construct: purchased Ambit Biosciences (scanMAXX KINOMEscan)
T3 sequence (Q9BWU1 whole entry): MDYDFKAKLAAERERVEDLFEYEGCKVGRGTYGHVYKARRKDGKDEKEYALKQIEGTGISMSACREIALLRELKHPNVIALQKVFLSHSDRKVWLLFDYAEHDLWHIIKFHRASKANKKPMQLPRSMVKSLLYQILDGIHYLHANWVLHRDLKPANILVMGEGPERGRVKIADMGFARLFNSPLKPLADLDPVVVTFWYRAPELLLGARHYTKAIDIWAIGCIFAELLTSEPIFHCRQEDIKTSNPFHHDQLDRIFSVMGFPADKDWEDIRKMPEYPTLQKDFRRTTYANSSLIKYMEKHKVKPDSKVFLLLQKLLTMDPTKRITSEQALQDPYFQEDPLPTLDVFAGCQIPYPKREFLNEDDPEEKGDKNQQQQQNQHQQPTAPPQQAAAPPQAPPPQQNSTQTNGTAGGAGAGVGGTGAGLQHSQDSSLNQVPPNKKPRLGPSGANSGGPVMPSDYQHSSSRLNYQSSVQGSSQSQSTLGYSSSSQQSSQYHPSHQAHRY

panel of 442 kinases [4] = target: T4, panel of 442 kinases (Homo sapiens, UniProt Q9UKI8); details: kinase TLK1; for remaining activity at 1 µM: read-out: TLK1 (% of control at 1 µM)
T4 construct: purchased Ambit Biosciences (scanMAXX KINOMEscan)
T4 sequence (Q9UKI8 1-766): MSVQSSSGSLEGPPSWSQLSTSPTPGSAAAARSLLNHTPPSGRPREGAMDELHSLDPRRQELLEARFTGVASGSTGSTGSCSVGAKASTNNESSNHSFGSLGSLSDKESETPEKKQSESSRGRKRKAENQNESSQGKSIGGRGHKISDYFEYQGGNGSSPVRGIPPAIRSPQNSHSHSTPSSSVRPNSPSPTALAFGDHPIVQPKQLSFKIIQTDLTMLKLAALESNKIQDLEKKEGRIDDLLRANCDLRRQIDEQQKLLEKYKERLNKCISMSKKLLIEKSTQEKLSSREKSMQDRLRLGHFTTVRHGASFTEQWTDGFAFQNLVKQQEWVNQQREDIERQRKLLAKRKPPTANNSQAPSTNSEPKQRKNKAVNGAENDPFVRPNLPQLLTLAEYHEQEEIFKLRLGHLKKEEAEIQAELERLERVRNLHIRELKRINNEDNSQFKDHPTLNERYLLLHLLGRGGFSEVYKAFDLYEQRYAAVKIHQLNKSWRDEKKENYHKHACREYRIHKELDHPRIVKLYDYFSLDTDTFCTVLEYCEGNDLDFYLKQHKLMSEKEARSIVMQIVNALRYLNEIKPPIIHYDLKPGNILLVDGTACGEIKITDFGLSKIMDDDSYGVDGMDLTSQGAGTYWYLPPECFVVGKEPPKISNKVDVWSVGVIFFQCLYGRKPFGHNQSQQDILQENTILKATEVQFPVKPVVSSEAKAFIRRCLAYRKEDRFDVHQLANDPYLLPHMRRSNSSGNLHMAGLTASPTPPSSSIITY

panel of 442 kinases [5] = target: T5, panel of 442 kinases (Homo sapiens, UniProt P29317); details: EPHA2; for remaining activity at 1 µM: read-out: % of control at 1 µM
T5 construct: purchased Ambit Biosciences (scanMAXX KINOMEscan)
T5 sequence (P29317 24-976): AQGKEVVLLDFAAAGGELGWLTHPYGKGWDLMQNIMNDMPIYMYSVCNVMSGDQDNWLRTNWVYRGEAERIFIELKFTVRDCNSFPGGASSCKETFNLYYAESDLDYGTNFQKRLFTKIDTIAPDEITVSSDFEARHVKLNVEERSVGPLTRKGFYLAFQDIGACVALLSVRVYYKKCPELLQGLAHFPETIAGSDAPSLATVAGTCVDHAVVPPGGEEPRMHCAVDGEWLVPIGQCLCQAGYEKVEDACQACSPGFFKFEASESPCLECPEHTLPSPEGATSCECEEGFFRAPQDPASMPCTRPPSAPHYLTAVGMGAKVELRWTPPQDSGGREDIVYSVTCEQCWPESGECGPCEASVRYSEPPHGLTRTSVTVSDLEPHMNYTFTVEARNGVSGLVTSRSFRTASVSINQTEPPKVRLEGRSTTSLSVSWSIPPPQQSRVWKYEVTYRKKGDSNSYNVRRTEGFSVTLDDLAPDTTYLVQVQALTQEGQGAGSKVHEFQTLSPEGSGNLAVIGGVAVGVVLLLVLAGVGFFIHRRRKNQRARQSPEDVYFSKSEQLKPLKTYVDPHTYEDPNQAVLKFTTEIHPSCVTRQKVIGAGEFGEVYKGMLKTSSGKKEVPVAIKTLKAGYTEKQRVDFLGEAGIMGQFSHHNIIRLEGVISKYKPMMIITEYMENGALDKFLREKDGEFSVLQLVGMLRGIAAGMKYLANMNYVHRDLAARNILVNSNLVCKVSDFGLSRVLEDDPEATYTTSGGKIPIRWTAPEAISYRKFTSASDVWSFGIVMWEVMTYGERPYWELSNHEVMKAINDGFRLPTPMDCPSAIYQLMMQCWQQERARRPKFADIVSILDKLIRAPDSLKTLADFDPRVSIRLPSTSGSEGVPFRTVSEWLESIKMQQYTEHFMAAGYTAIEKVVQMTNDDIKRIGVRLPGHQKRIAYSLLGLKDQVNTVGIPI

[6] = 10 µM, read-out: % of control at 10 µM

Row | SMILES | remaining activity at 1 µM (panel of 442 kinases [1]) | remaining activity at 10 µM (panel of 442 kinases [1]; [6]) | remaining activity at 1 µM (panel of 442 kinases [2]) | remaining activity at 10 µM (panel of 442 kinases [2]; [6]) | remaining activity at 1 µM (panel of 442 kinases [3]) | remaining activity at 10 µM (panel of 442 kinases [3]; [6]) | remaining activity at 1 µM (panel of 442 kinases [4]) | remaining activity at 10 µM (panel of 442 kinases [4]; 10 µM, read-out: TLK1 (% of control at 10 µM)) | remaining activity at 1 µM (panel of 442 kinases [5]) | remaining activity at 10 µM (panel of 442 kinases [5]; [6])
1 | Nc1cc(C(F)(F)F)c(-c2cc(N3CCOCC3)nc(N3CCOCC3)n2)cn1 [Buparlisib] | 82% | 100% | 90% | 81% | 100% | 98% | 100% | 82% | 100% | 100%
2 | COc1ncc(-c2ccc3nccc(-c4ccnnc4)c3c2)cc1NS(=O)(=O)c1ccc(F)cc1F [Omipalisib] | 100% |  | 100% |  | 64% |  | 95% |  | 100% | 
3 | FC(F)c1nc2ccccc2n1-c1nc(N2CCOCC2)nc(N2CCOCC2)n1 [ZSTK474, 2-(difluoromethyl)-1-[4,6-di(4-morpholinyl)-1,3,5-triazin-2-yl]-1H-benzimidazole] | 94% |  | 100% |  | 88% |  | 100% |  | 100% | 
4 | Cn1c(=O)n(-c2ccc(C(C)(C)C#N)cc2)c2c3cc(-c4cnc5ccccc5c4)ccc3ncc21 [Dactolisib, 2-methyl-2-[4-(3-methyl-2-oxo-8-quinolin-3-yl-2,3-dihydroimidazo[4,5-c]quinolin-1-yl)-phenyl] propionitrile] | 100% |  | 67% |  | 88% |  | 75% |  | 96% | 
